Test results reported in ChEMBL document CHEMBL1201862, “PubChem BioAssay data set” (2004).
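Growth conditions: 96-well plates. Treatment: test compound, 48 hours, 5 concentrations. Analysis: linear interpolation between bracketing concentrations; unreached endpoints set to highest concentration. The concentration for 50% growth inhibition is given as GI50.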 Calls of active or inactive are those of the source. No stated cut-off is given here; in the data, active = GI50 up to about 1.1 µM and inactive = higher.

Experiments:
Assay in all cases: growth of human tumour cells (NCI), 48 h
DU-145 = test system: DU-145
SW-620 = test system: SW-620
M14 = test system: M14
MDA-MB-435 = test system: MDA-MB-435
RPMI-8226 = test system: RPMI-8226
SR = test system: SR
T47D = test system: T47D
SK-OV-3 = test system: SK-OV-3
SF-539 = test system: SF-539
OVCAR-5 = test system: OVCAR-5
KM12 = test system: KM12
NCI/ADR-RES = test system: NCI/ADR-RES
TK-10 = test system: TK-10
IGROV-1 = test system: IGROV-1
OVCAR-3 = test system: OVCAR-3
SK-MEL-5 = test system: SK-MEL-5
NCI-H460 = test system: NCI-H460
COLO 205 = test system: COLO 205
HT-29 = test system: HT-29
SNB-19 = test system: SNB-19

SMILES	GI50 (DU-145)	GI50 (SW-620)	GI50 (M14)	GI50 (MDA-MB-435)	GI50 (RPMI-8226)	GI50 (SR)	GI50 (T47D)	GI50 (SK-OV-3)	GI50 (SF-539)	GI50 (OVCAR-5)	GI50 (KM12)	GI50 (NCI/ADR-RES)	GI50 (TK-10)	GI50 (IGROV-1)	GI50 (OVCAR-3)	GI50 (SK-MEL-5)	GI50 (NCI-H460)	GI50 (COLO 205)	GI50 (HT-29)	GI50 (SNB-19)
Cc1cc(Cc2c(C)c(C)c(Cc3cc(C)cc(C(C)(C)C)c3O)c(C)c2C)c(O)c(C(C)(C)C)c1	> 100 µM (inactive)	> 100 µM (inactive)	> 100 µM (inactive)	> 100 µM (inactive)	> 100 µM (inactive)	1.21 µM (inactive)	> 100 µM (inactive)	> 100 µM (inactive)	> 100 µM (inactive)	> 100 µM (inactive)	> 100 µM (inactive)	> 100 µM (inactive)	> 100 µM (inactive)	> 100 µM (inactive)	> 100 µM (inactive)	> 100 µM (inactive)	> 100 µM (inactive)	> 100 µM (inactive)	> 100 µM (inactive)	> 100 µM (inactive)
CC1=NC(C)(C)[N+]([O-])=C1	> 10 µM (inactive)	> 10 µM (inactive)	> 10 µM (inactive)	> 10 µM (inactive)	> 10 µM (inactive)	0.001 µM (active)	> 10 µM (inactive)	> 10 µM (inactive)	> 10 µM (inactive)	> 10 µM (inactive)	> 10 µM (inactive)	> 10 µM (inactive)	> 10 µM (inactive)	> 10 µM (inactive)	> 10 µM (inactive)	> 10 µM (inactive)	> 10 µM (inactive)	> 10 µM (inactive)	> 10 µM (inactive)	> 10 µM (inactive)
O=C1Oc2ccccc2C(=O)/C1=C1/C=C(c2ccccc2)SS1	85.5 µM (inactive)	> 100 µM (inactive)	43.8 µM (inactive)	48.9 µM (inactive)	> 100 µM (inactive)	28.3 µM (inactive)	> 100 µM (inactive)	> 100 µM (inactive)	> 100 µM (inactive)	> 100 µM (inactive)	> 100 µM (inactive)	60.1 µM (inactive)	> 100 µM (inactive)	86.5 µM (inactive)	71.1 µM (inactive)	> 100 µM (inactive)	> 100 µM (inactive)	57.5 µM (inactive)	40.6 µM (inactive)	81.8 µM (inactive)
S=C1N(c2ccc(Cl)cc2)C2=C(/N=N/c3ccccc3)C(=Nc3ccccc3S2)N1c1ccccn1	14.7 µM (inactive)	16.4 µM (inactive)	13.7 µM (inactive)	13.5 µM (inactive)	17.7 µM (inactive)	11.2 µM (inactive)	0.075 µM (active)	17.8 µM (inactive)	16.6 µM (inactive)	19.1 µM (inactive)	11.6 µM (inactive)	15.5 µM (inactive)	14.8 µM (inactive)	0.164 µM (active)	14.2 µM (inactive)	11.4 µM (inactive)	11 µM (inactive)	12.6 µM (inactive)	17.1 µM (inactive)	13.9 µM (inactive)
C[N+](C)(C)CC1CCc2ccccc2C1=O (stereo not given)	18.6 µM (inactive)	1.68 µM (inactive)	5.87 µM (inactive)	5.62 µM (inactive)	1.43 µM (inactive)	1.79 µM (inactive)	6.53 µM (inactive)	18.6 µM (inactive)	15.8 µM (inactive)	16.1 µM (inactive)	10.8 µM (inactive)	10.6 µM (inactive)	16.1 µM (inactive)	11.6 µM (inactive)	4.49 µM (inactive)	16.2 µM (inactive)	19.7 µM (inactive)	7.55 µM (inactive)	6.03 µM (inactive)	15.1 µM (inactive)
COc1cc2c(cc1OC)CC1c3cc(OC)c(OC)cc3CCN1CC2 (stereo not given)	> 100 µM (inactive)	84.1 µM (inactive)	> 100 µM (inactive)	40.3 µM (inactive)	41.8 µM (inactive)	> 100 µM (inactive)	> 100 µM (inactive)	> 100 µM (inactive)	58.7 µM (inactive)	> 100 µM (inactive)	> 100 µM (inactive)	63.2 µM (inactive)	> 100 µM (inactive)	52.8 µM (inactive)	> 100 µM (inactive)	30.8 µM (inactive)	17.5 µM (inactive)	> 100 µM (inactive)	27.5 µM (inactive)	0.49 µM (active)
Cc1ccc(Nc2nc(=S)[nH]c3[nH]ncc23)cc1	85.5 µM (inactive)	> 100 µM (inactive)	> 100 µM (inactive)	39.8 µM (inactive)	24 µM (inactive)	36.1 µM (inactive)	66.1 µM (inactive)	> 100 µM (inactive)	65.8 µM (inactive)	> 100 µM (inactive)	31 µM (inactive)	> 100 µM (inactive)	81.1 µM (inactive)	30.1 µM (inactive)	50.4 µM (inactive)	37.6 µM (inactive)	64.6 µM (inactive)	39.5 µM (inactive)	42.5 µM (inactive)	> 100 µM (inactive)
COc1ccc2c(c1)/C(=C\c1c(Cl)[nH]c3ccccc13)C(=O)N2	19.3 µM (inactive)	3.4 µM (inactive)	4.08 µM (inactive)	1.91 µM (inactive)	3.61 µM (inactive)	2.03 µM (inactive)	26.1 µM (inactive)	2.97 µM (inactive)	3.61 µM (inactive)	10.9 µM (inactive)	3.05 µM (inactive)	2.81 µM (inactive)	6.9 µM (inactive)	1.21 µM (inactive)	6 µM (inactive)	3.6 µM (inactive)	3.98 µM (inactive)	2.27 µM (inactive)	2.14 µM (inactive)	6.62 µM (inactive)
C=CCNC(=O)NNC(O)(C(=O)OCC)C(F)(F)F (stereo not given)	> 100 µM (inactive)	> 100 µM (inactive)	> 100 µM (inactive)	> 100 µM (inactive)	> 100 µM (inactive)	> 100 µM (inactive)	> 100 µM (inactive)	> 100 µM (inactive)	> 100 µM (inactive)	> 100 µM (inactive)	> 100 µM (inactive)	> 100 µM (inactive)	> 100 µM (inactive)	> 100 µM (inactive)	> 100 µM (inactive)	> 100 µM (inactive)	> 100 µM (inactive)	> 100 µM (inactive)	> 100 µM (inactive)	> 100 µM (inactive)
NCCN1C(=O)c2ccccc2C1c1ccc(Cl)cc1 (stereo not given)	> 100 µM (inactive)	> 100 µM (inactive)	> 100 µM (inactive)	> 100 µM (inactive)	> 100 µM (inactive)	> 100 µM (inactive)	> 100 µM (inactive)	> 100 µM (inactive)	> 100 µM (inactive)	> 100 µM (inactive)	> 100 µM (inactive)	> 100 µM (inactive)	> 100 µM (inactive)	> 100 µM (inactive)	> 100 µM (inactive)	> 100 µM (inactive)	> 100 µM (inactive)	> 100 µM (inactive)	> 100 µM (inactive)	> 100 µM (inactive)
Clc1ccc(C2ON=C(c3ccccc3)N2C23CC4CC(CC(C4)C2)C3)cc1 (stereo not given)	> 10 µM (inactive)	> 10 µM (inactive)	> 10 µM (inactive)	> 10 µM (inactive)	> 10 µM (inactive)	> 10 µM (inactive)	> 10 µM (inactive)	> 10 µM (inactive)	> 10 µM (inactive)	> 10 µM (inactive)	> 10 µM (inactive)	> 10 µM (inactive)	> 10 µM (inactive)	> 10 µM (inactive)	> 10 µM (inactive)	> 10 µM (inactive)	> 10 µM (inactive)	> 10 µM (inactive)	> 10 µM (inactive)	> 10 µM (inactive)
C=C(C)C(=O)OC1C(C(C)CCCO)=C(CO)CC2OC(=O)C(=C)C21 (stereo not given)	14.6 µM (inactive)	14.7 µM (inactive)	16.3 µM (inactive)	19.9 µM (inactive)	17.1 µM (inactive)	14.5 µM (inactive)	17.4 µM (inactive)	29 µM (inactive)	23 µM (inactive)	22.1 µM (inactive)	12.6 µM (inactive)	33.5 µM (inactive)	30.3 µM (inactive)	15.6 µM (inactive)	17.6 µM (inactive)	14 µM (inactive)	16.4 µM (inactive)	15.1 µM (inactive)	18.3 µM (inactive)	37.9 µM (inactive)
c1ccc(C2C3=C(c4ccccc4CC3)N3c4cc5c(cc4=NC34CCCCC24)Nc2ccccc2N=5)cc1 (stereo not given)	> 10 µM (inactive)	9.64 µM (inactive)	6.61 µM (inactive)	7.28 µM (inactive)	5.11 µM (inactive)	1.11 µM (active)	7.53 µM (inactive)	> 10 µM (inactive)	> 10 µM (inactive)	> 10 µM (inactive)	> 10 µM (inactive)	6.79 µM (inactive)	> 10 µM (inactive)	> 10 µM (inactive)	> 10 µM (inactive)	> 10 µM (inactive)	5.14 µM (inactive)	> 10 µM (inactive)	7.87 µM (inactive)	> 10 µM (inactive)
Cc1occc1/C(S)=N\c1ccc(Cl)c(COC(C)(C)C)c1	20.1 µM (inactive)	17.5 µM (inactive)	19.1 µM (inactive)	16.7 µM (inactive)	14.2 µM (inactive)	17.6 µM (inactive)	12.1 µM (inactive)	17.1 µM (inactive)	16.8 µM (inactive)	19.4 µM (inactive)	16.7 µM (inactive)	16.1 µM (inactive)	19.4 µM (inactive)	15 µM (inactive)	15.1 µM (inactive)	16.2 µM (inactive)	17.2 µM (inactive)	15.7 µM (inactive)	15.7 µM (inactive)	20.9 µM (inactive)
